# Assay results: patent publication US20240208901A1, “Deuterated 3,3'-Diselenodipropionic Acid (DSePA) and Its Use as an Anticancer or Radioprotective Agent” (Secretary, Department of Atomic Energy, priority 2022, published 2024)
# Legend:
# WI-38 cells = assay: MTT assay, toxicity in non-cancerous lung fibroblast WI-38 cells; format: cell-based, human; details: Homo sapiens, WI-38, WI38 cells, 48 h post treatment, read-out: IC50 for inhibiting the cell proliferation
# Text: (§1) Therefore, D-DSePA was compared with un-deuterated DSePA for its anticancer activity in A549, H1975 and H3122 cell lines which are representative of NSCLC. […] The plot of percent (%) cytotoxicity (100-% viability) versus the concentration of DSePA/D-DSePA was used to estimate the half maximum concentration (IC50) of above compounds to inhibit the proliferation of cells. […] Similarly, the toxicity of DSePA/D-DSePA was studied in non-cancerous lung fibroblast cells, WI-38 and WI-26 VA4 in the concentration range of 0.1 to 1000 μM at 48 h post treatment by MTT assay (FIG. 9D and 9E). […] Employing these values, the therapeutic index (IC50 in normal lung cell/IC50 in lung cancer cell) of DSePA and D-DSePA in different pairs of normal versus cancerous cells (viz., A549/WI-38, A549/WI-26 VA4, H1975/WI-38, H1975/WI-26 VA4, H3122/WI-38 and H3122/WI-26 VA4) was calculated (Table-3). […]
# (§2) MTT Assay—To evaluate the anti-proliferative effect of D-DScPA and DScPA, Cells (˜5×10^3) suspended in 100 μl of complete culture medium were seeded in each well of 96 well plates. […] The percentage (%) cytotoxicity was calculated from the decrease in absorbance at 570 nm of treated groups as compared to that of control group. […] The therapeutic index was calculated by normalizing the IC50 concentration of D-DSePA/DSePA in non-cancerous cells to that in cancerous cells.
# WI-26 VA4 cells = assay: MTT assay, toxicity in non-cancerous lung fibroblast WI-26 VA4 cells; format: cell-based, human; details: Homo sapiens, WI26VA4, 48 h post treatment, read-out: IC50 for inhibiting the cell proliferation
# Text: as §1, §2
# [1] = system: lung cancer cell lines (A549, H1975 and H3122) versus normal lung cells (WI-38 and WI-26 VA4); assay: Therapeutic index by MTT assay, lung cancer cell lines versus normal lung cells; format: cell-based, human; details: for Therapeutic Index (IC50 in normal cell / IC50 in cancer cells): 48 h post-treatment
# Description: Therefore, D-DSePA was compared with un-deuterated DSePA for its anticancer activity in A549, H1975 and H3122 cell lines which are representative of NSCLC. For this, above cells were treated with the varying concentrations (0.1-100 μM) of DSePA/D-DSePA for 48 h and the cell viability was determined by MTT assay (FIG. 9A-C). The plot of percent (%) cytotoxicity (100-% viability) versus the concentration of DSePA/D-DSePA was used to estimate the half maximum concentration (IC50) of above compounds to inhibit the proliferation of cells. […] Similarly, the toxicity of DSePA/D-DSePA was studied in non-cancerous lung fibroblast cells, WI-38 and WI-26 VA4 in the concentration range of 0.1 to 1000 μM at 48 h post treatment by MTT assay (FIG. 9D and 9E). […] Employing these values, the therapeutic index (IC50 in normal lung cell/IC50 in lung cancer cell) of DSePA and D-DSePA in different pairs of normal versus cancerous cells (viz., A549/WI-38, A549/WI-26 VA4, H1975/WI-38, H1975/WI-26 VA4, H3122/WI-38 and H3122/WI-26 VA4) was calculated (Table-3). […] The average therapeutic index of DSePA and D-DSePA estimated from above study was 11.05±1.5 and 78.7±29.2 respectively (FIG. 10).
# MTT Assay—To evaluate the anti-proliferative effect of D-DScPA and DScPA, Cells (˜5×10^3) suspended in 100 μl of complete culture medium were seeded in each well of 96 well plates. The cells were allowed to attach and grow for 24 h, treated with desired concentrations of D-DSePA/DScPA dissolved in culture medium for 48 h and then processed for MTT assay as described in literature. The percentage (%) cytotoxicity was calculated from the decrease in absorbance at 570 nm of treated groups as compared to that of control group. The % cytotoxicity was plotted as a function of the concentration of D-DSePA and DSePA and from this curve, the concentration of D-DSePA/DScPA causing 50% toxicity (IC50) was estimated. The therapeutic index was calculated by normalizing the IC50 concentration of D-DSePA/DSePA in non-cancerous cells to that in cancerous cells.
# [2] = system: human NSCLC cells such as A549, H1975 and H3122; assay: MTT assay, human NSCLC cells (summary statement); format: cell-based; details: read-out: half maximum concentration (IC50) for growth inhibition
# Text: 3,3′-Disclenodipropionic acid-D8 (D-DSePA, chemical structure shown in FIG. 1) was synthesized by reacting freshly prepared sodium selenide (Na2Se2) and 3-bromopropionic acid-D4 in D2O solvent with 42% yield. The synthesized D-DSePA was purified and characterized by NMR spectroscopy and mass spectrometry. The molecular structure of D-DSePA has been established by single-crystal X-ray diffraction analysis. The treatment of D-DSePA and un-deuterated DSePA inhibited the growth of human NSCLC cells such as A549, H1975 and H3122 with half maximum concentration (IC50) in the range of 5-50 μM by MTT assay. […] Finally, at identical treatment concentration, D-DSePA offered better radioprotection to non-cancerous WI38 cells with a dose modification factor (DMF) of 1.16±0.05 as compared to un-deuterated DScPA with DMF of 1.12±0.03.
# as §2
smiles,measurement,setting,value
"O=C(O)CC[Se][Se]CCC(=O)O [DSePA, 3,3′-diselenodipropionic acid]",IC50,WI-38 cells,171 ± 2.2 µM
same,IC50,WI-26 VA4 cells,151 ± 3.3 µM
same,Therapeutic Index (IC50 in normal cell / IC50 in cancer cells),"[1]; A549/WI-26 VA4, MTT assay",9.9 ± 0.5
same,Therapeutic Index (IC50 in normal cell / IC50 in cancer cells),"[1]; A549/WI-38, MTT assay",11.2 ± 0.6
same,Therapeutic Index (IC50 in normal cell / IC50 in cancer cells),"[1]; H1975/WI-26 VA4, MTT assay",14.2 ± 0.7
same,Therapeutic Index (IC50 in normal cell / IC50 in cancer cells),"[1]; H1975/WI-38, MTT assay",16.1 ± 0.8
same,Therapeutic Index (IC50 in normal cell / IC50 in cancer cells),"[1]; H3122/WI-26 VA4, MTT assay",7.0 ± 0.4
same,Therapeutic Index (IC50 in normal cell / IC50 in cancer cells),"[1]; H3122/WI-38, MTT assay",7.9 ± 0.4
same,average therapeutic index,"[1]; mean of six normal/cancer cell pairs, mean±SEM (n=6), MTT assay",11.05±1.5
same,IC50,[2],5 to 50 µM
